Test results from patent US11427544B2, “Histone deacetylase 6 inhibitors and use thereof” (TAIPEI MEDICAL UNIVERSITY, priority 2016, dated 2022).
Read-outs that look alike come from different tables or passages of the source.

Tests used:
[1] = system: PC-3 prostate cancer cell line; assay: Antiproliferative activity, PC-3; format: cell-based, human
Method: (§1) A study was conducted to evaluate the inhibitory activity of compounds of Formula (I) in inhibiting HDAC6, antiproliferative activity of test compounds in suppressing cancer cell growth, and selectivity of inhibiting HDAC6 over other HDAC isoforms.
(§2) The study was performed according to the protocol reported in Hsieh et al., Cell Death and Disease, 2014, April; 5:e1166.
(§3) Shown in Table 2 below are antiproliferative activities (measured by their half maximal concentration for inhibiting cell growth, i.e., GI50) of the test compounds against various cancer cell lines.

[2] = system: HCT116 colorectal cancer cell line; assay: Antiproliferative activity, HCT116; format: cell-based; conditions: Homo sapiens, HCT-116
Method: as §1, §2, §3

HL60 leukemia cell line = assay: Antiproliferative activity, HL60; format: cell-based; conditions: Homo sapiens, HL-60
Method: as §1, §2, §3

[3] = system: A549 lung cancer cell line; assay: Antiproliferative activity, A549; format: cell-based, human
Method: as §1, §2, §3

HDAC1 = target: T1, HDAC1 (Homo sapiens, UniProt Q13547); assay: Fluorogenic HDAC assay, HDAC1; format: biochemical; conditions: recombinant HDAC1; read-out: Enzyme IC50 HDAC1
T1 construct: purchased BPS Bioscience Corp
Source text: (§4) Of note, there are eighteen human HDACs. Eleven of them, designated as HDAC1-11, are zinc-dependent. Seven of them, designated as Sirt1-7, are NAD+-dependent.
(§5) Fluorogenic HDAC assay kits were used to assess the ability of HDAC inhibitors to inhibit deacetylation of lysine residues on a substrate by recombinant proteins HDAC1, 3, 4, 5, 6, 7, 8, 9 and Sirt1 according to the manufacturer's instructions (BPS Bioscience Corp., San Diego, Calif., USA).

HDAC6 = target: T2, HDAC6 (Homo sapiens, UniProt Q9UBN7); assay: Fluorogenic HDAC assay, HDAC6; format: biochemical; conditions: recombinant HDAC6; read-out: Enzyme IC50 HDAC6
T2 construct: purchased BPS Bioscience Corp
T2 sequence (Q9UBN7 1-1215): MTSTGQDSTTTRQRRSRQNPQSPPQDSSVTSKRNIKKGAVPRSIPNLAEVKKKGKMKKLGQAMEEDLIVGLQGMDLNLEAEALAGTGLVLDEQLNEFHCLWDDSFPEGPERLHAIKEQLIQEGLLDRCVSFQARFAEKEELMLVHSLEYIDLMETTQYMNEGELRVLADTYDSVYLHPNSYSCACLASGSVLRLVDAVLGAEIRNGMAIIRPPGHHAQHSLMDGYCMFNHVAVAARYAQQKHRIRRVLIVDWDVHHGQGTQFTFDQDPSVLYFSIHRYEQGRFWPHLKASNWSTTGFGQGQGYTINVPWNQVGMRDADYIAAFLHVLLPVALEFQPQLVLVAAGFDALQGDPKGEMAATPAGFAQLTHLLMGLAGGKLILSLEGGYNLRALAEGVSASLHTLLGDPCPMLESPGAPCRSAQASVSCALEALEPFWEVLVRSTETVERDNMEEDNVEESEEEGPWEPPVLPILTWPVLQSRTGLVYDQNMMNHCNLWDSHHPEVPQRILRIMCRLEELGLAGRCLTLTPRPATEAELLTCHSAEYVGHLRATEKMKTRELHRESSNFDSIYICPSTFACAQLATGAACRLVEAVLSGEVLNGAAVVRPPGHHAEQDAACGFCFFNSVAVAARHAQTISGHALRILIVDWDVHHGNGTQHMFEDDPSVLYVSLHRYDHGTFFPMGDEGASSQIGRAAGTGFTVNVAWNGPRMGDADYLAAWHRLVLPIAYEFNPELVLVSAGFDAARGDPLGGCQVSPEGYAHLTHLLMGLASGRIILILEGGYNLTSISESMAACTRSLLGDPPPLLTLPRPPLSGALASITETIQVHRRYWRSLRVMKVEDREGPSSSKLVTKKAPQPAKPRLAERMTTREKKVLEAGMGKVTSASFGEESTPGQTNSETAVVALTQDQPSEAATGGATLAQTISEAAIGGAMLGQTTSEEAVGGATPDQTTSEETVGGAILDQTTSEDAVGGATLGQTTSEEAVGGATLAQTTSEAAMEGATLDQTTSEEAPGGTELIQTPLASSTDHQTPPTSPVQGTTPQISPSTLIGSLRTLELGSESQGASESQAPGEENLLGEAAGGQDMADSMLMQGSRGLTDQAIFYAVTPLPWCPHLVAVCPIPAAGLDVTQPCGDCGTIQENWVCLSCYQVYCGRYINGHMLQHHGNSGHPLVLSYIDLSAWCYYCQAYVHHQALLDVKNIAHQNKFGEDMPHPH
Source text: as §4, §5

T1 sequence (Q13547 whole entry): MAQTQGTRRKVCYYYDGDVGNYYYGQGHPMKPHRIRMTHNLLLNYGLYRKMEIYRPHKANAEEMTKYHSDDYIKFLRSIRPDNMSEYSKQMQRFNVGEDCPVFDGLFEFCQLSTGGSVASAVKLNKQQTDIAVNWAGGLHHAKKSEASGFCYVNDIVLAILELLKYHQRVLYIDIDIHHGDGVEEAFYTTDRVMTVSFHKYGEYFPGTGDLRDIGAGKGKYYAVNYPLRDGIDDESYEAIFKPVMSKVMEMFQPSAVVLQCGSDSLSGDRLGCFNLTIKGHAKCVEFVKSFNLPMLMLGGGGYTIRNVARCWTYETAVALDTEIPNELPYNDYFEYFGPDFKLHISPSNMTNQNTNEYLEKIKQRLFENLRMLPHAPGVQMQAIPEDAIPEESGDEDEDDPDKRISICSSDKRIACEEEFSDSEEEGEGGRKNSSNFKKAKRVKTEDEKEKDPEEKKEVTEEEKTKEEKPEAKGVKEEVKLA

Row | SMILES | GI50 ([1]; Homo sapiens) | GI50 [2] | GI50 ([3]; Homo sapiens) | other results
1 | O=C(NO)c1ccc(CNc2ccc3ccccc3n2)cc1 [Compound 40, N-hydroxy-4-((quinolin-2-ylamino)methyl)benzamide] | 0.85 ± 0.09 µM | 0.29 ± 0.02 µM | – | –
2 | O=C(NO)c1ccc(Nc2cccc3cccnc23)cc1 [Compound 59, N-hydroxy-4-(quinolin-8-ylamino)benzamide] | – | 3.32 ± 0.21 µM | – | GI50 (HL60 leukemia cell line): 6.64 ± 0.69 µM
3 | O=C(NO)c1ccc(C(=O)Nc2cnc3ccccc3c2)cc1 [Compound 8, N^1-hydroxy-N^4-(quinolin-3-yl)terephthalamide] | > 10 µM | – | > 10 µM | –
4 | O=C(NO)c1ccc(CNc2ccnc3ccccc23)cc1 [Compound 44, N-hydroxy-4-((quinolin-4-ylamino)methyl)benzamide] | – | 3.28 ± 0.48 µM | – | –
5 | O=C(/C=C/c1ccc(CNc2cccc3ncccc23)cc1)NO [Compound 14, (E)-N-hydroxy-3-(4-((quinolin-5-ylamino)methyl)phenyl)acrylamide] | 0.62 ± 0.05 µM | – | 1.25 ± 0.08 µM | –
6 | O=C(Cc1ccc(C(=O)Nc2cccc3cccnc23)cc1)NO [Compound 50, 4-(2-(hydroxyamino)-2-oxoethyl)-N-(quinolin-8-yl)benzamide] | > 10 µM | – | > 10 µM | –
7 | O=C(/C=C/c1ccc(CNc2ccc3ncccc3c2)cc1)NO [Compound 22, (E)-N-hydroxy-3-(4-((quinolin-6-ylamino)methyl)phenyl)acrylamide] | > 10 µM | – | > 10 µM | –
8 | Cc1ccc2cccc(NCc3ccc(C(=O)NO)cc3)c2n1 [Compound 68, N-hydroxy-4-(((2-methylquinolin-8-yl)amino)methyl)benzamide] | 4.45 ± 0.92 µM | – | 5.89 ± 0.42 µM | IC50 (HDAC1): 1.69 µM; IC50 (HDAC6): 0.0121 µM
9 | O=C(NO)c1ccc(CNc2cccc3cnccc23)cc1 [Compound 54, N-hydroxy-4-((isoquinolin-5-ylamino)methyl)benzamide] | 6.06 ± 0.4 µM | – | 4.64 ± 0.25 µM | –
10 | O=C(NO)c1cccc(C(=O)Nc2cccc3cccnc23)c1 [Compound 38, M-hydroxy-N^3-(quinolin-8-yl)isophthalamide] | > 10 µM | > 10 µM | – | –
11 | O=C(NO)c1ccc(CNc2cncc3ccccc23)cc1 [Compound 63, N-hydroxy-4-((isoquinolin-4-ylamino)methyl)benzamide] | – | 1.2 ± 0.14 µM | – | GI50 (HL60 leukemia cell line): 1.96 ± 0.16 µM
12 | O=C(NO)c1ccc(C(=O)Nc2ccc3ncccc3c2)cc1 [Compound 24, N^1-hydroxy-N^4-(quinolin-6-yl)terephthalamide] | > 10 µM | – | > 10 µM | –
13 | O=C(/C=C/c1ccc(C(=O)Nc2cccc3cccnc23)cc1)NO [Compound 34, (E)-4-(3-(hydroxyamino)-3-oxoprop-1-enyl)-N-(quinolin-8-yl)benzamide] | 3.51 ± 0.18 µM | – | 4.26 ± 0.07 µM | –
14 | O=C(NO)c1ccc(C(=O)Nc2cccc3ncccc23)cc1 [Compound 16, N1-hydroxy-N4-(quinolin-5-yl)terephthalamide] | > 10 µM | – | > 10 µM | –
15 | O=C(NO)c1ccc(CNc2cccc3ccncc23)cc1 [Compound 56, N-hydroxy-4-((isoquinolin-8-ylamino)methyl)benzamide] | 4.91 ± 0.24 µM | – | 1.76 ± 0.21 µM | –
16 | O=C(NO)c1ccc(COc2cccc3cccnc23)cc1 [Compound 71, N-hydroxy-4-((quinolin-8-yloxy)methyl)benzamide] | 6.23 ± 0.32 µM | – | 7.81 ± 1.17 µM | IC50 (HDAC6): 0.011 µM
17 | O=C(NO)c1ccc(C(=O)NCc2cccc3cccnc23)cc1 [Compound 47, N^1-hydroxy-N^4-(quinolin-8-ylmethyl)terephthalamide] | 2.08 ± 0.1 µM | – | 7.77 ± 0.03 µM | –

Row | SMILES | GI50 ([1]; Homo sapiens) | GI50 [2] | GI50 ([3]; Homo sapiens) | other results
18 | O=C(/C=C/c1ccc(C(=O)Nc2cccc3ncccc23)cc1)NO [Compound 18, (E)-4-(3-(hydroxyamino)-3-oxoprop-1-enyl)-N-(quinolin-5-yl)benzamide] | > 10 µM | – | > 10 µM | –
19 | O=C(/C=C/c1ccc(CNc2cccc3cccnc23)cc1)NO [Compound 30, (E)-N-hydroxy-3-(4-((quinolin-8-ylamino)methyl)phenyl)acrylamide] | 1.25 ± 0.02 µM | – | 1.11 ± 0.05 µM | –
20 | O=C(/C=C/c1ccc(C(=O)Nc2ccc3ncccc3c2)cc1)NO [Compound 26, (E)-4-(3-(hydroxyamino)-3-oxoprop-1-enyl)-N-(quinolin-6-yl)benzamide] | > 10 µM | – | > 10 µM | –
21 | O=C(/C=C/c1ccc(C(=O)Nc2cnc3ccccc3c2)cc1)NO [Compound 10, (E)-4-(3-(hydroxyamino)-3-oxoprop-1-enyl)-N-(quinolin-3-yl)benzamide] | > 10 µM | – | > 10 µM | –
22 | O=C(NO)c1ccc(NCc2cccc3cccnc23)cc1 [Compound 75, N-hydroxy-4-(quinolin-8-ylmethylamino)benzamide] | > 10 µM | – | 6.32 ± 0.92 µM | IC50 (HDAC1): 2.04 µM; IC50 (HDAC6): 0.011 µM
23 | O=C(NO)c1ccc(CSc2cccc3cccnc23)cc1 [Compound 73, N-hydroxy-4-((quinolin-8-ylthio)methyl)benzamide] | 4.29 ± 0.7 µM | – | 6.11 ± 0.69 µM | IC50 (HDAC1): 2.2 µM; IC50 (HDAC6): 0.0234 µM
24 | O=C(NO)c1ccc(CNc2ccc3ncccc3c2)cc1 [Compound 20, N-hydroxy-4-((quinolin-6-ylamino)methyl)benzamide] | > 10 µM | – | > 10 µM | IC50 (HDAC1): > 100 µM; IC50 (HDAC6): 0.019 µM
25 | O=C(NO)c1ccc(CCc2cccc3cccnc23)cc1 [Compound 52, N-hydroxy-4-(2-(quinolin-8-yl)ethyl)benzamide] | 9.66 ± 0.07 µM | 3.05 ± 0.09 µM | – | –
26 | O=C(NO)c1ccc(C(=O)Nc2cccc3cccnc23)cc1 [Compound 32, N^1-hydroxy-N^4-(quinolin-8-yl)terephthalamide] | > 10 µM | – | > 10 µM | –
27 | O=C(NO)c1ccc(CNc2cnc3ccccc3c2)cc1 [Compound 4, N-hydroxy-4-((quinolin-3-ylamino)methyl)benzamide] | 1.62 ± 0.2 µM | – | 2.73 ± 0.24 µM | IC50 (HDAC1): 0.78 µM; IC50 (HDAC6): 0.0191 µM
28 | O=C(NO)c1ccc(CNc2ccc3cccnc3c2)cc1 [Compound 42, N-hydroxy-4-((quinolin-7-ylamino)methyl)benzamide] | 2.64 ± 0.14 µM | 0.62 ± 0.03 µM | – | –
29 | CN1CCc2c(c3ccccc3n2Cc2ccc(C(=O)NO)cc2)C1 [Tubastatin A, reference compound] | – | – | – | GI50 [1]: 48.19 ± 0.43 µM; GI50 [3]: 52.2 ± 1.28 µM
30 | O=C(NO)c1cccc(CNc2cccc3cccnc23)c1 [Compound 36, N-hydroxy-3-((quinolin-8-ylamino)methyl)benzamide] | > 10 µM | > 10 µM | – | –
31 | O=C(NO)c1ccc(CNc2nccc3ccccc23)cc1 [Compound 61, N-hydroxy-4-((isoquinolin-1-ylamino)methyl)benzamide] | – | 0.66 ± 0.1 µM | – | GI50 (HL60 leukemia cell line): 1.17 ± 0.23 µM
32 | O=C(/C=C/c1ccc(CNc2cnc3ccccc3c2)cc1)NO [Compound 6, (E)-N-hydroxy-3-(4-((quinolin-3-ylamino)methyl)phenyl)acrylamide] | 0.38 ± 0.03 µM | – | 0.71 ± 0.01 µM | –
33 | O=C(NO)c1ccc(CNc2cccc3nccnc23)cc1 [Compound 66, N-hydroxy-4-((quinoxalin-5-ylamino)methyl)benzamide] | – | 1.95 ± 0.21 µM | – | GI50 (HL60 leukemia cell line): 5.58 ± 0.15 µM
